Calls of active or inactive are those of the source. No cut-off for these calls is given here.
How the values were obtained:
[1] = target: T1, Alkaline phosphatase, placental type (Homo sapiens, UniProt P05187); assay: Binding affinity to human PLAP incubated for 15 mins by Fluorescence polarization assay
[2] = Inhibition of human recombinant PLAP using biotinylated CDP as substrate incubated for 30 mins by chemiluminescent assay
HeLa [3] = assay: Antitumor activity against human HeLa cells xenografted in […] nu/nu mouse assessed as cell accumulation in spleen at 2.5 micromol/kg, iv incubated for 1 hr by microscopic analysis; assay type: functional, organism-based; settings: dose 2.5 µmol/kg
SK-OV-3 [4] = assay: Inhibition of human recombinant PLAP expressed in human SK-OV-3 cells assessed as fluorescence intensity at 100 nM incubated for 1 hr by FACS based flow cytometry analysis; assay type: cell-based
HeLa [5] = assay: Antitumor activity against human HeLa cells xenografted in […] nu/nu mouse assessed as cell accumulation in liver at 2.5 micromol/kg, iv incubated for 1 hr by microscopic analysis; assay type: functional, organism-based; settings: dose 2.5 µmol/kg
HeLa [6] = assay: Antitumor activity against human HeLa cells xenografted in […] nu/nu mouse assessed as cell accumulation in heart at 2.5 micromol/kg, iv incubated for 1 hr by microscopic analysis; assay type: functional, organism-based; settings: dose 2.5 µmol/kg
HeLa [7] = assay: Induction of cell death in human HeLa cells incubated for 72 hrs in presence of uniCAR T cells by microscopic analysis; assay type: functional, cell-based
HeLa [8] = assay: Inhibition of human recombinant PLAP expressed in human HeLa cells assessed as fluorescence intensity at 100 nM incubated for 1 hr by FACS analysis; assay type: cell-based
HeLa [9] = assay: Antitumor activity against human HeLa cells xenografted in […] nu/nu mouse assessed as cell accumulation in lung at 2.5 micromol/kg, iv incubated for 1 hr by microscopic analysis; assay type: functional, organism-based; settings: dose 2.5 µmol/kg
HeLa [10] = assay: Antitumor activity against human HeLa cells xenografted in […] nu/nu mouse assessed as cell accumulation in intestine at 2.5 micromol/kg, iv incubated for 1 hr by microscopic analysis; assay type: functional, organism-based; settings: dose 2.5 µmol/kg
SK-OV-3 [11] = assay: Inhibition of human recombinant PLAP expressed in human SK-OV-3 cells assessed as localization of cell on membrane at 120 nM incubated for 15 mins by Hoechst 33342 staining based laser microscopic analysis
OVCAR-3 = assay: Inhibition of human recombinant PLAP expressed in human OVCAR-3 cells assessed as fluorescence intensity at 100 nM incubated for 1 hr by FACS based flow cytometry analysis; assay type: cell-based
HeLa [12] = assay: Inhibition of human recombinant PLAP expressed in human HeLa cells assessed as localization of cell on membrane at 120 nM incubated for 15 mins by Hoechst 33342 staining based laser microscopic analysis
[13] = target: T1, Alkaline phosphatase, placental type; assay: Inhibition of human PLAP using biotinylated CDP as substrate incubated for 30 mins by chemiluminescent assay
[14] = target: T2, Alkaline phosphatase, tissue-nonspecific isozyme (Homo sapiens) (UniProt P05186); assay: Inhibition of TNAP (unknown origin) at 20 uM using biotinylated CDP as substrate incubated for 30 mins by chemiluminescent assay
T2 sequence (whole entry): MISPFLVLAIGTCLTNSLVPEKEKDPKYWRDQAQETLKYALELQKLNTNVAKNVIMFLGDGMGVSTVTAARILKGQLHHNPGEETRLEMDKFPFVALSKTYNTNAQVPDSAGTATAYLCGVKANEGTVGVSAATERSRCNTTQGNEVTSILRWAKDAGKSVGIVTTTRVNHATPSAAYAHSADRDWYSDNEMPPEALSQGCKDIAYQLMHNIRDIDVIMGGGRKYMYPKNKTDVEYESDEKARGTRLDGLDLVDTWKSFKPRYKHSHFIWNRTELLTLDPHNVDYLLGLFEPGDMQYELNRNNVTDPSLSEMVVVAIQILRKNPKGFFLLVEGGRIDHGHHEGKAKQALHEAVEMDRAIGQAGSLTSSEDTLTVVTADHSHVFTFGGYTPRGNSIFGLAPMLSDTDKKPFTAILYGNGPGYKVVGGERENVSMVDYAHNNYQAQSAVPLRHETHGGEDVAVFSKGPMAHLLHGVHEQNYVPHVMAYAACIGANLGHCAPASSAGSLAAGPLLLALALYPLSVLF

[15] = target: T2, Alkaline phosphatase, tissue-nonspecific isozyme (Homo sapiens); assay: Binding affinity to TNAP (unknown origin) incubated for 15 mins by Fluorescence polarization assay

T1 sequence (P05187 whole entry): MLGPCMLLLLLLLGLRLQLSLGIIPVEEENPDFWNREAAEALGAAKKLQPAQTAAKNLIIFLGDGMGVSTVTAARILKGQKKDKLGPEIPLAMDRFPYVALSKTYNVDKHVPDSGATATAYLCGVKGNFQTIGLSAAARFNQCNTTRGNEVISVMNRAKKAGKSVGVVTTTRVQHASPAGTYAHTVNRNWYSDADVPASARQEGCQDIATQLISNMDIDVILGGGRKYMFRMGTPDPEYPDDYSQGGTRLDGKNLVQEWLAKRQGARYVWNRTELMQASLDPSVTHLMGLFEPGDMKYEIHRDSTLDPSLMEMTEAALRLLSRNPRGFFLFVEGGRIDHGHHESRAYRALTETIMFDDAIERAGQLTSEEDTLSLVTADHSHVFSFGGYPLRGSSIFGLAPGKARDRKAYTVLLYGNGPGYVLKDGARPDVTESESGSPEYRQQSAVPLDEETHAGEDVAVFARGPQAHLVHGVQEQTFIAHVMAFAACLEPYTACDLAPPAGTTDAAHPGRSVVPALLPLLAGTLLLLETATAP

SMILES	Activity [1]	IC50 [2]	further results
CC(C)(C)OC(=O)n1c(-c2ccccc2C[C@@H](NC(=O)c2cnc3ccccn3c2=O)C(=O)O)cc2c(Cl)cccc21	Active	13 µM	–
NC(=O)CC[C@@H](C(=O)Nc1cccc(Oc2ccccc2)c1)n1cc(CNC(=O)c2ccc3ncn(CC(=O)c4ccc(O)c(O)c4)c3c2)nn1	Active	0.84 µM	–
C[C@@H]1CCC[C@H](C)N1CCC(=O)N[C@@H](CCC(=O)N[C@@H](CCC(=O)O)C(=O)N[C@@H](CCCCN)C(N)=O)C(=O)NCCCSCc1ccc(F)cc1	Active	16 µM	–
Cc1cc(-c2cnccn2)ccc1NC(=O)[C@@H](CCC(N)=O)n1cc(CNC(=O)c2ccc3ncn(CC(=O)c4ccc(O)c(O)c4)c3c2)nn1	Active	2.4 µM	–
COc1c(Cl)cc(-c2cccc(C[C@@H](NC(=O)c3cc(-c4ccc(C)o4)[nH]n3)C(=O)NCCOCCOCCNC(=S)Nc3ccc(-c4c5ccc(=O)cc-5oc5cc(O)ccc45)c(C(=O)O)c3)c2)cc1Cl	–	–	Activity (HeLa [3]): Active; Activity (SK-OV-3 [4]): Active; Activity (HeLa [5]): Active; Activity (HeLa [6]): Active; Activity (HeLa [7]): Active; Activity (HeLa [8]): Active; Activity (HeLa [9]): Active; Activity (HeLa [10]): Active; Activity (SK-OV-3 [11]): Active; Activity (OVCAR-3): Active; Activity (HeLa [12]): Active
COc1c(Cl)cc(-c2cccc(C[C@@H](NC(=O)c3cc(-c4ccc(C)o4)[nH]n3)C(=O)O)c2)cc1Cl	Active	–	IC50 [13]: 0.032 µM; inhibition [14]: Active; Activity [15]: Active
Cc1cc(NC(=O)[C@H](CCC(=O)NCC(=O)N[C@@H](CCCCN)C(N)=O)NC(=O)CC(C)(C)CC(N)=O)ccc1Br	–	> 20 µM	–
Cc1cc(-c2cnccn2)ccc1NC(=O)[C@H](CCC(N)=O)n1cc(CNC(=O)c2ccc3ncn(CC(=O)c4ccc(O)c(O)c4)c3c2)nn1	Active	2.5 µM	–
CC(C)(C)OC(=O)n1c(-c2ccccc2C[C@H](NC(=O)c2cnc3ccccn3c2=O)C(=O)O)cc2c(Cl)cccc21	Active	4 µM	–
COc1c(Cl)cc(-c2cccc(C[C@H](NC(=O)c3cc(-c4ccc(C)o4)[nH]n3)C(=O)O)c2)cc1Cl	Active	0.13 µM	–
NC(=O)CC[C@H](C(=O)Nc1cccc(Oc2ccccc2)c1)n1cc(CNC(=O)c2ccc3ncn(CC(=O)c4ccc(O)c(O)c4)c3c2)nn1	Active	5 µM	–
COC(=O)[C@H](Cc1ccc(-c2ccc(Cl)cc2C(F)(F)F)cc1)NC(=O)CC1C(=O)Nc2cc(C)ccc21 (stereo partly drawn)	Active	3.9 µM	–
Cc1ccc2c(c1)NC(=O)C2CC(=O)N[C@@H](Cc1ccc(-c2ccc(Cl)cc2C(F)(F)F)cc1)C(=O)O (stereo partly drawn)	Active	0.24 µM	–
Cc1cc(NC(=O)[C@@H](CCC(=O)N[C@@H](CCC(=O)O)C(=O)N[C@@H](CCCCN)C(N)=O)NC(=O)CC(C)(C)CC(N)=O)ccc1Br	–	> 20 µM	–
Cc1ccc(NC(=O)NCC#Cc2ccc(C[C@H](NC(=O)c3nn(C)c(C)c3Br)C(=O)O)cc2)cc1	Active	19 µM	–
C[C@@H]1CCC[C@H](C)N1CCC(=O)N[C@@H](CCC(=O)NCC(=O)N[C@@H](CCCCN)C(N)=O)C(=O)NCCCSCc1ccc(F)cc1	Active	> 20 µM	–
Cc1ccc(NC(=O)NCC#Cc2ccc(C[C@@H](NC(=O)c3nn(C)c(C)c3Br)C(=O)O)cc2)cc1	Active	> 20 µM	–
